Reference: ChEMBL document CHEMBL3045914, “Response of dry bean to pre-plant incorporated and pre-emergence applications of S-metolachlor and fomesafen” (Crop Prot, 2009)

How the values were obtained:
Format in all cases: organism-based
Phaseolus vulgaris [1] = assay: Toxicity in Phaseolus vulgaris (black dry bean) assessed as visible injury on leaves at 2 times recommended dose treated at pre-plant incorporated application after 14 days; settings: in vivo, other, 336 h
Phaseolus vulgaris [2] = assay: Toxicity in Phaseolus vulgaris (dry bean) assessed as shoot dry weight per row at 280 to 560 g a.i. ha'-1; settings: in vivo
Phaseolus vulgaris [3] = assay: Toxicity in Phaseolus vulgaris (kidney dry bean) assessed as visible injury on leaves at 2 times recommended dose treated at pre-plant incorporated application after 14 days; settings: in vivo, other, 336 h
Phaseolus vulgaris [4] = assay: Toxicity in Phaseolus vulgaris (cranberry dry bean) assessed as visible injury on leaves at recommended dose treated at pre-plant incorporated application after 14 days; settings: in vivo, other, 336 h
Phaseolus vulgaris [5] = assay: Toxicity in Phaseolus vulgaris (white dry bean) assessed as visible injury on leaves at recommended dose treated at pre-emergence application after 14 days; settings: in vivo, other, 336 h
Phaseolus vulgaris [6] = assay: Toxicity in Phaseolus vulgaris (cranberry dry bean) assessed as visible injury on leaves at 2 times recommended dose treated at pre-plant incorporated application after 14 days; settings: in vivo, other, 336 h
Phaseolus vulgaris [7] = assay: Toxicity in Phaseolus vulgaris (black dry bean) assessed as visible injury on leaves at recommended dose treated at pre-emergence application after 14 days; settings: in vivo, other, 336 h
Phaseolus vulgaris [8] = assay: Toxicity in Phaseolus vulgaris (black dry bean) assessed as visible injury on leaves at recommended dose treated at pre-plant incorporated application after 14 days; settings: in vivo, other, 336 h
Phaseolus vulgaris [9] = assay: Toxicity in Phaseolus vulgaris (dry bean) assessed as plant height at 280 to 560 g a.i. ha'-1; settings: in vivo
Phaseolus vulgaris [10] = assay: Toxicity in Phaseolus vulgaris (kidney dry bean) assessed as visible injury on leaves at recommended dose treated at pre-plant incorporated application after 14 days; settings: in vivo, other, 336 h
Phaseolus vulgaris [11] = assay: Toxicity in Phaseolus vulgaris (dry bean) assessed as yield at 280 to 560 g a.i. ha'-1; settings: in vivo
Phaseolus vulgaris [12] = assay: Toxicity in Phaseolus vulgaris (cranberry dry bean) assessed as visible injury on leaves at 2 times recommended dose treated at pre-emergence application after 14 days; settings: in vivo, other, 336 h
Phaseolus vulgaris [13] = assay: Toxicity in Phaseolus vulgaris (white dry bean) assessed as visible injury on leaves at 2 times recommended dose treated at pre-plant incorporated application after 14 days; settings: in vivo, other, 336 h
Phaseolus vulgaris [14] = assay: Toxicity in Phaseolus vulgaris (white dry bean) assessed as visible injury on leaves at recommended dose treated at pre-plant incorporated application after 14 days; settings: in vivo, other, 336 h
Phaseolus vulgaris [15] = assay: Toxicity in Phaseolus vulgaris (dry bean)assessed as visible injury on leaves at 280 to 560 g a.i. ha'-1 after 14 days; settings: in vivo, 336 h
Phaseolus vulgaris [16] = assay: Toxicity in Phaseolus vulgaris (cranberry dry bean) assessed as visible injury on leaves at recommended dose treated at pre-emergence application after 14 days; settings: in vivo, other, 336 h
Phaseolus vulgaris [17] = assay: Toxicity in Phaseolus vulgaris (white dry bean) assessed as visible injury on leaves at 2 times recommended dose treated at pre-emergence application after 14 days; settings: in vivo, other, 336 h
Phaseolus vulgaris [18] = assay: Toxicity in Phaseolus vulgaris (dry bean)assessed as visible injury on leaves at 280 to 560 g a.i. ha'-1 after 7 days; settings: in vivo, 168 h
Phaseolus vulgaris [19] = assay: Toxicity in Phaseolus vulgaris (kidney dry bean) assessed as visible injury on leaves at 2 times recommended dose treated at pre-emergence application after 14 days; settings: in vivo, other, 336 h
Phaseolus vulgaris [20] = assay: Toxicity in Phaseolus vulgaris (black dry bean) assessed as visible injury on leaves at 2 times recommended dose treated at pre-emergence application after 14 days; settings: in vivo, other, 336 h
Phaseolus vulgaris [21] = assay: Toxicity in Phaseolus vulgaris (dry bean) assessed as visible injury on leaves at 280 to 560 g a.i. ha'-1 after 28 days; settings: in vivo, 672 h
Phaseolus vulgaris [22] = assay: Toxicity in Phaseolus vulgaris (kidney dry bean) assessed as visible injury on leaves at recommended dose treated at pre-emergence application after 14 days; settings: in vivo, other, 336 h
Phaseolus vulgaris [23] = assay: Toxicity in Phaseolus vulgaris (dry bean) assessed as visible injury on leaves at 1373 to 2746 g a.i. ha'-1 after 7 days; settings: in vivo, 168 h
Phaseolus vulgaris [24] = assay: Toxicity in Phaseolus vulgaris (dry bean) assessed as shoot dry weight per row at 1373 to 2746 g a.i. ha'-1; settings: in vivo
Phaseolus vulgaris [25] = assay: Toxicity in Phaseolus vulgaris (dry bean) assessed as visible injury on leaves at 1373 to 2746 g a.i. ha'-1 after 14 days; settings: in vivo, 336 h
Phaseolus vulgaris [26] = assay: Toxicity in Phaseolus vulgaris (dry bean) assessed as plant height at 1373 to 2746 g a.i. ha'-1; settings: in vivo
Phaseolus vulgaris [27] = assay: Toxicity in Phaseolus vulgaris (dry bean) assessed as yield at 1373 to 2746 g a.i. ha'-1; settings: in vivo
Phaseolus vulgaris [28] = assay: Toxicity in Phaseolus vulgaris (dry bean) assessed as visible injury on leaves at 1373 to 2746 g a.i. ha'-1 after 28 days; settings: in vivo, 672 h

## CS(=O)(=O)NC(=O)c1cc(Oc2ccc(C(F)(F)F)cc2Cl)ccc1[N+](=O)[O-] [FOMESAFEN]
Phaseolus vulgaris [1]
  Activity: 0.5%
Phaseolus vulgaris [2]
  Activity: 40 g
Phaseolus vulgaris [3]
  Activity: 0.2%
Phaseolus vulgaris [4]
  Activity: 0.1%
Phaseolus vulgaris [5]
  Activity: 0.1%
Phaseolus vulgaris [6]
  Activity: 0%
Phaseolus vulgaris [7]
  Activity: 1%
Phaseolus vulgaris [8]
  Activity: 0.8%
Phaseolus vulgaris [9]
  Activity: 49 cm
Phaseolus vulgaris [10]
  Activity: 0.3%
Phaseolus vulgaris [11]
  Crop_yield: 2.4 tons/ha
Phaseolus vulgaris [12]
  Activity: 0%
Phaseolus vulgaris [13]
  Activity: 0.2%
Phaseolus vulgaris [14]
  Activity: 0.5%
Phaseolus vulgaris [15]
  Activity: 0.2%
Phaseolus vulgaris [16]
  Activity: 0%
Phaseolus vulgaris [17]
  Activity: 0.4%
Phaseolus vulgaris [18]
  Activity: 0.2%
Phaseolus vulgaris [19]
  Activity: 0.2%
Phaseolus vulgaris [20]
  Activity: 1.2%
Phaseolus vulgaris [21]
  Activity: 0%
Phaseolus vulgaris [22]
  Activity: 0%

## CCc1cccc(C)c1N(C(=O)CCl)[C@@H](C)COC [S-METOLACHLOR]
Phaseolus vulgaris [1]
  Activity: 0.7%
Phaseolus vulgaris [3]
  Activity: 0.7%
Phaseolus vulgaris [4]
  Activity: 0.1%
Phaseolus vulgaris [5]
  Activity: 4.2%
Phaseolus vulgaris [23]
  Activity: 0.7%
Phaseolus vulgaris [6]
  Activity: 0.2%
Phaseolus vulgaris [7]
  Activity: 3.4%
Phaseolus vulgaris [8]
  Activity: 0.9%
Phaseolus vulgaris [10]
  Activity: 0.1%
Phaseolus vulgaris [12]
  Activity: 0.1%
Phaseolus vulgaris [13]
  Activity: 1.6%
Phaseolus vulgaris [24]
  Activity: 39 g
Phaseolus vulgaris [25]
  Activity: 1%
Phaseolus vulgaris [14]
  Activity: 0.5%
Phaseolus vulgaris [16]
  Activity: 0%
Phaseolus vulgaris [17]
  Activity: 6.6%
Phaseolus vulgaris [26]
  Activity: 49 cm
Phaseolus vulgaris [19]
  Activity: 0.1%
Phaseolus vulgaris [20]
  Activity: 5.5%
Phaseolus vulgaris [27]
  Crop_yield: 2.4 tons/ha
Phaseolus vulgaris [28]
  Activity: 0.2%
Phaseolus vulgaris [22]
  Activity: 0%
